{"source": "patent EP1649859A1", "about": "“Pharmaceutical compositions comprising at least one poorly diffusible anticancer drug and a olidodeoxynucleotide immunestimulant” (Institut Gustave Roussy, priority 2004, dated 2006)", "origin": "cited, not measured here", "conditions": "bléomycine seule à des doses sub-thérapeutiques", "data": [{"substance": "bléomycine", "values": [{"measurement": "activité antitumorale propre", "value": "ne possèdent pas d'activité antitumorale propre"}]}]}
